Among the data in ChEMBL document CHEMBL2346631, “Thiazolidine-2,4-diones: progress towards multifarious applications” (Bioorg Med Chem, 2013) are Activity values, retold here.

This test relates to Mus musculus. Briefly: Hypoglycemic activity in KKAy mouse assessed as reduction of blood glucose level at 38 mg/kg/day, po relative to control. Type of test: functional. More on the design: scale not given: the % may be the effect or the level left.

On to `Cc1oc(-c2ccccc2)nc1CCOc1ccc(CC2C(=O)NOC2=O)cc1` (stereo unspecified) [REGLITAZAR], for which the Activity is on record as 25%.
